Laboratory results published in patent US10227342B2 (ARIAD PHARMACEUTICALS, INC., priority 2014, dated 2019).

Tests used:
Type in all cases: cell-based
[1] = target: human EGFR exon 20 insertion NPG (H773_V774insNPG) (Homo sapiens, UniProt P00533, INS773NPG, cells depend on it); experiment: Ba/F3-EGFR-Exon20-NPG cell anti-proliferative assay (CellTiter 96 MTS, 72 h); conditions: read-out: EGFR exon 20 NPG insertion IC50
Experimental: Ba/F3 cells expressing EGFR exon 20 insertions (named Ba/F3-EGFR-Exon20-NPG or Ba/F3-EGFR-Exon20-ASV) can proliferate in the absence of IL-3. The anti-proliferative activity of compounds were determined as follows: BaF3-EGFR-Exon20 cells (NPG or ASV) seeded in 96 well plates (2500 cells/well) were treated with test compound (dissolved in DMSO) at a series of concentrations (4-fold dilution, top concentration: 10,000 nM). The plates were incubated for 72 h in a 37° C. incubator with 5% CO2, and the number of viable cells in each well were measured indirectly by CellTiter 96® Aqueous One Solution Cell Proliferation Assay (Promega) This assay is a colorimetric method for determining the number of viable cells through measurement of their metabolic activity by detection of enzymatic conversion of tetrazolium salts into blue formazan derivatives. Reagent (20 μL) was added into each well, and the plates were returned to the incubator for 2 h. The absorbance in each well was then measured at 490 nm using an Envision plate reader (Perkin Elmer).

[2] = target: human EGFR E746-A750 deletion and T790M Mutation (DT) (Homo sapiens (Human), UniProt P00533, DEL746-750/T790M); experiment: Ba/F3-EGFR-Del/T790M cell anti-proliferative assay (CellTiter 96 MTS, 72 h); conditions: Ba/F3-EGFR-Del/T790M cells; read-out: EGFR exon 19 deletion and T790M mutation IC50
[3] = target: Her2 exon 20 YVMA insertion (A775_G776ins YVMA) (Homo sapiens (Human), UniProt P04626, INS775YVMA); experiment: Ba/F3-Her2 Exon20 YVMA cell anti-proliferative assay (CellTiter 96 MTS, 72 h); conditions: Ba/F3-Her2 Exon20 YVMA cells
Excerpt: Ba/F3 cells expressing Her2 Exon20 YVMA insertions (named Ba/F3-Her2 Exon20 YVMA) can proliferate in the absence of IL-3.

human EGFR exon 20 insertion NPG (H773_V774insNPG), sequence (P00533 with tags, fused parts or gaps INS773NPG limits assumed): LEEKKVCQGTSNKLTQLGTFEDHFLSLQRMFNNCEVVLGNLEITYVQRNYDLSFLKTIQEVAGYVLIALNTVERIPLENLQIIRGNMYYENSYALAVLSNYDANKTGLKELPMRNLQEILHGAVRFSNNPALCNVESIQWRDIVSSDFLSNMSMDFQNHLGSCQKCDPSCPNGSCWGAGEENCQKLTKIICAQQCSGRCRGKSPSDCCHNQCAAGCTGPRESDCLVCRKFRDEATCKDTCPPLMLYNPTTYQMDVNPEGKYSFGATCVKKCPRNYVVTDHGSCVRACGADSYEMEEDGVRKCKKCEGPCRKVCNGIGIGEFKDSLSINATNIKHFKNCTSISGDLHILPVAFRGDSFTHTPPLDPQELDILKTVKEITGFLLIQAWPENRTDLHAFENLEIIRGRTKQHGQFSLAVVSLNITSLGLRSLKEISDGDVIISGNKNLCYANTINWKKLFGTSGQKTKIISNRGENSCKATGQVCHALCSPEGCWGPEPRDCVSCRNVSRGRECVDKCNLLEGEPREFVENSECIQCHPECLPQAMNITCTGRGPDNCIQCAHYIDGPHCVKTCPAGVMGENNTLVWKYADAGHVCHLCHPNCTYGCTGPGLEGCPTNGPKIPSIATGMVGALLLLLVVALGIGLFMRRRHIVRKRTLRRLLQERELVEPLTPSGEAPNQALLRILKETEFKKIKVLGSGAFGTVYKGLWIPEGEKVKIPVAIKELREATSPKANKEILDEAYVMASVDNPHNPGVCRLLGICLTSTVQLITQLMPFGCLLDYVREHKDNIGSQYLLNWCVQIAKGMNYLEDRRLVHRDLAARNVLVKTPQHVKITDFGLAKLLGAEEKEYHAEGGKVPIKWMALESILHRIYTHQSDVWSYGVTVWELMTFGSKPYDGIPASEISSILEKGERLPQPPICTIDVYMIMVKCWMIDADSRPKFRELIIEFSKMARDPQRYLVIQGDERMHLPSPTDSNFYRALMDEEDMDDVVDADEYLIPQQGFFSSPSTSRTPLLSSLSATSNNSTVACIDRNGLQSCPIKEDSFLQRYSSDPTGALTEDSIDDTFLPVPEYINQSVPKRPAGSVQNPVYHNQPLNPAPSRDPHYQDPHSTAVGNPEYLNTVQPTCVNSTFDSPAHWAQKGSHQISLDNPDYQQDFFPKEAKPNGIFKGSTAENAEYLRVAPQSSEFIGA
human EGFR E746-A750 deletion and T790M Mutation (DT), sequence (P00533 other isoform, or with tags, fused parts or gaps T790M/del E746-A750): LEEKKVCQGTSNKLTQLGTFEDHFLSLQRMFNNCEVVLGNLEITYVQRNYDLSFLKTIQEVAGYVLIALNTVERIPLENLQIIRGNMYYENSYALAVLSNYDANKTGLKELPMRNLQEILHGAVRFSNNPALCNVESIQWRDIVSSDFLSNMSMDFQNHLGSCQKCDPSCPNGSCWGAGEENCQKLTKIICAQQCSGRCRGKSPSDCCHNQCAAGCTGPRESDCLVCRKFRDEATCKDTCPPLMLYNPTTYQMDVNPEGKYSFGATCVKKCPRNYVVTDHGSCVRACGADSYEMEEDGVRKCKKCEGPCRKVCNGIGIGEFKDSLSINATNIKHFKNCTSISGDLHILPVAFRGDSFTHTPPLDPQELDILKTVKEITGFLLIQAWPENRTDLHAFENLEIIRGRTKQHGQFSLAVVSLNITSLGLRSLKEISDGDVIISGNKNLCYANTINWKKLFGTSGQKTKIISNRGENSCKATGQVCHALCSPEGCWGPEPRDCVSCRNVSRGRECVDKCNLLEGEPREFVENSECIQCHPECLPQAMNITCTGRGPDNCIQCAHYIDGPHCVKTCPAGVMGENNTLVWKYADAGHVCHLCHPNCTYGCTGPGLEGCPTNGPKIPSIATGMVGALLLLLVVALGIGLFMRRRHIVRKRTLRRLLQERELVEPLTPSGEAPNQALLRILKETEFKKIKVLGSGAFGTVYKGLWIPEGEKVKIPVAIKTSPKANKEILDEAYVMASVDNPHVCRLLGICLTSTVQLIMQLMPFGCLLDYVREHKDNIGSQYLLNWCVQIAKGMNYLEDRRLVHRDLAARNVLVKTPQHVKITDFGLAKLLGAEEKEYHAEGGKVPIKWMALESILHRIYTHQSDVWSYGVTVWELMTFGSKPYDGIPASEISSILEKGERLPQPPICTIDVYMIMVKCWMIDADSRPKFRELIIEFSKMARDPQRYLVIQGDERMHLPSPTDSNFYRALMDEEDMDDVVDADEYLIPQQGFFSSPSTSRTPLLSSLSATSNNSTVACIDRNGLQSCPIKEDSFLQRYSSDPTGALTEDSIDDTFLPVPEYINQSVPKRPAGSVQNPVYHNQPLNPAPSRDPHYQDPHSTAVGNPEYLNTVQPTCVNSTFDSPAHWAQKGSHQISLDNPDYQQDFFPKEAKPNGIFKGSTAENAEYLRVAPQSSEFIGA
Her2 exon 20 YVMA insertion (A775_G776ins YVMA), sequence (P04626 other isoform, or with tags, fused parts or gaps ins YVMA behind 775): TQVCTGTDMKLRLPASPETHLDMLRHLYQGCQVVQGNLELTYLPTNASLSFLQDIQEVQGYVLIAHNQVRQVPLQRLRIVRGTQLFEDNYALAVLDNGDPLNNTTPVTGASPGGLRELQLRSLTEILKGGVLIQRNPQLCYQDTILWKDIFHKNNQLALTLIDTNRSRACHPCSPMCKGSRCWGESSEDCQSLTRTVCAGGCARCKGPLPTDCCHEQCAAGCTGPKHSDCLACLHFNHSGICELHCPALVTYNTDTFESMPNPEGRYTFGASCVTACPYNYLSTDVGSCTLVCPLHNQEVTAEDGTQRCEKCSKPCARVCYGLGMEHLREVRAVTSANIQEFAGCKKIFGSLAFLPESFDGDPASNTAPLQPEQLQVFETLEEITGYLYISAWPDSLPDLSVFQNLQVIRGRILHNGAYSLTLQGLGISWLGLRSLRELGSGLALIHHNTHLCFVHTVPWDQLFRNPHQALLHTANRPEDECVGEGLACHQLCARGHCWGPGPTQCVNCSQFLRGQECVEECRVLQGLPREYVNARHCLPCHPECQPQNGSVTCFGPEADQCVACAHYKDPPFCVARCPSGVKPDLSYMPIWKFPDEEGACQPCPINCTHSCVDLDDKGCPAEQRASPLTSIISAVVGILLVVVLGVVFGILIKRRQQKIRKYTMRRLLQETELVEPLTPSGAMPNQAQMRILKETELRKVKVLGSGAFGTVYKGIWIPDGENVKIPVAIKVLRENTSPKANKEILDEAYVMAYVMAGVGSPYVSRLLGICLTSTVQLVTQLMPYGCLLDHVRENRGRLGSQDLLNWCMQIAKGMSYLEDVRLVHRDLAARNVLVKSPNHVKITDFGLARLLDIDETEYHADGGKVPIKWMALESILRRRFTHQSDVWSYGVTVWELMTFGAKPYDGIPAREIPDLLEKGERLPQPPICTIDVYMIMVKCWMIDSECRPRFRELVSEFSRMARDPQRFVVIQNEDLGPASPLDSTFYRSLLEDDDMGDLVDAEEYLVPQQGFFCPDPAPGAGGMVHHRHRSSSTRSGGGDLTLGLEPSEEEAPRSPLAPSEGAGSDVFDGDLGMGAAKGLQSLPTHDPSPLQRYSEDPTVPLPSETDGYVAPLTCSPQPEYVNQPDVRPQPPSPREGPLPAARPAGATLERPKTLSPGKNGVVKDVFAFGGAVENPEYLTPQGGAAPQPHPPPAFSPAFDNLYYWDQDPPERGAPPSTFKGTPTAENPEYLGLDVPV

SMILES | IC50 [1] [nM] | IC50 [2] [nM] | IC50 [3] [nM]
C=CC(=O)Nc1cc(Nc2ncc(Cl)c(-c3cnn4ccccc34)n2)c(OC)cc1OCCN1CCOCC1 [Example 50, N-(5-((5-chloro-4-(pyrazolo[1,5-a]pyridin-3-yl)pyrimidin-2-yl)amino)-4-methoxy-2-(2-morpholinoethoxy)phenyl)acrylamide] | > 1000 | < 100 | > 1000
C=CC(=O)Nc1cc(Nc2ncc(Cl)c(-c3cnn4ccccc34)n2)c(OC)cc1OCCN1CCCC1 [Example 49, N-(5-((5-chloro-4-(pyrazolo[1,5-a]pyridin-3-yl)pyrimidin-2-yl)amino)-4-methoxy-2-(2-(pyrrolidin-1-yl)ethoxy)phenyl)acrylamide] | 100 to 500 | < 100 | 500 to 1000
C=CC(=O)Nc1cc(Nc2ncc(CC)c(-c3cnn4ccccc34)n2)c(OC)cc1N(C)CCN(C)C [Example 1, N-(2-((2-(dimethylamino)ethyl)(methyl)amino)-5-((5-ethyl-4-(pyrazolo[1,5-a]pyridin-3-yl)pyrimidin-2-yl)amino)-4-methoxyphenyl)acrylamide] | < 100 | < 100 | 100 to 500
C=CC(=O)Nc1cc(Nc2ncc(Cl)c(-c3cn(C)c4ccccc34)n2)c(OC)cc1C#CC(C)(C)N(C)C [Example 46, N-(5-((5-chloro-4-(1-methyl-1H-indol-3-yl)pyrimidin-2-yl)amino)-2-(3-(dimethylamino)-3-methylbut-1-yn-1-yl)-4-methoxyphenyl)acrylamide] | 100 to 500 | < 100 | 500 to 1000
C=CC(=O)Nc1cc(Nc2ncc(Cl)c(-c3cnn4ccccc34)n2)c(OC)cc1OC(COC)CN(CC)CC (stereo not drawn) [Example 47, N-(5-((5-chloro-4-(pyrazolo[1,5-a]pyridin-3-yl)pyrimidin-2-yl)amino)-2-((1-(diethylamino)-3-methoxypropan-2-yl)oxy)-4-methoxyphenyl) acrylamide] | 100 to 500 | < 100 | 500 to 1000
C=CC(=O)Nc1cc(Nc2ncc(Cl)c(-c3cn(C)c4ccccc34)n2)c(OC)cc1C#CCN(C)C [Example 45, N-(5-((5-chloro-4-(1-methyl-1H-indol-3-yl)pyrimidin-2-yl)amino)-2-(3-(dimethylamino)prop-1-yn-1-yl)-4-methoxyphenyl)acrylamide] | 100 to 500 | < 100 | 500 to 1000
C=CC(=O)Nc1cc(Nc2ncc(Cl)c(-c3cnn4ccccc34)n2)c(OC)cc1N(C)CCN1CCN(C)CC1 [Example 27, N-(5-((5-chloro-4-(pyrazolo[1,5-a]pyridin-3-yl)pyrimidin-2-yl)amino)-4-methoxy-2-(methyl(2-(4-methylpiperazin-1-yl)ethyl)amino)phenyl)acrylamide] | 500 to 1000 | < 100 | > 1000
C=CC(=O)Nc1cc(Nc2ncc(Cl)c(-c3cnn4ccccc34)n2)c(OC)cc1N(C)CCN1CCOCC1 [Example 54, N-(5-((5-chloro-4-(pyrazolo[1,5-a]pyridin-3-yl)pyrimidin-2-yl)amino)-4-methoxy-2-(methyl(2-morpholinoethyl)amino)phenyl)-acrylamide] | 500 to 1000 | < 100 | > 1000
C=CC(=O)Nc1cc(Nc2ncc(Cl)c(-c3cnn4ccccc34)n2)c(OC)cc1N(C)CCN(CC)CC [Example 53, N-(5-((5-chloro-4-(pyrazolo[1,5-a]pyridin-3-yl)pyrimidin-2-yl)amino)-2-((2-(diethylamino)ethyl)-(methyl)amino)-4-methoxyphenyl)acrylamide] | 100 to 500 | < 100 | 500 to 1000
C=CC(=O)Nc1cc(Nc2ncc(Cl)c(-c3cnn4ccccc34)n2)c(OC)cc1N(C)CCN(C)CCF [Example 33, N-(5-((5-chloro-4-(pyrazolo[1,5-a]pyridin-3-yl)pyrimidin-2-yl)amino)-2-((2-((2-fluoroethyl)(methyl)amino)ethyl)(methyl)amino)-4-methoxyphenyl)acrylamide] | 100 to 500 | < 100 | 500 to 1000
